# Experimental data: patent US11628169B2, “Therapeutic drug for motor complications in Parkinson's disease” (Sumitomo Pharma Co., Ltd., priority 2020, dated 2023)
# Legend:
# [1] = test system: PD-LID rat model; assay: Dyskinesia-like symptom (AIMs) score in PD-LID rat model; format: in vivo
# [2] = test system: PD-LID rat model; assay: as above; format: in vivo; conditions: continuous subcutaneous infusion 60 mg/mL (mean 0.78 mg/kg/hour); day 0 of implanting the pump; vs solvent group
# Method: To make a PD-LID rat model, a mixture of levodopa methyl ester hydrochloride (6 mg/kg; Sigma-Aldrich) dissolved in saline and benserazide hydrochloride (15 mg/kg; Sigma-Aldrich) (hereinafter, also referred to as “levodopa containing solution”) was intraperitoneally administered once daily to 6-OHDA-lesioned rats. The levodopa containing solution was repeatedly administered for 3 weeks or longer to observe and evaluate the behavior. The behavior was observed and evaluated in a transparent acrylic cage for 1 minute every 20 minutes after 20 minutes from the intraperitoneal administration of the levodopa containing solution, up until after 3 hours from administration. […] The sum of the scores for Limb AIMs, Axial AIMs, and Orolingual AIMs in 3 hours was used as the total dyskinesia-like symptom (AIMs) score. Individuals with a total AIMs score of less than 10 were excluded from the test as not manifesting a dyskinesia-like symptom. The behavior was observed and evaluated before the drug evaluation date. The rats were assigned to each dosing group by using the 3 hour total dyskinesia-like symptom (AIMs) score, Locomotive behavior score, and rat body weight as indicators, which were used for evaluation of drugs. […]
# After 4 hours from application, a levodopa containing solution was intraperitoneally administered to observe and evaluate the behavior. Individuals with 50% or more of the tape agent coming off during the test were excluded from analysis. […]
# As in Example 2, a levodopa containing solution was repeated administered to 6-0HDA-lesioned rats for 3 weeks or longer to observe and evaluate the behavior. The behavior was observed and evaluated before the drug evaluation date. The rats were assigned to each dosing group by using the 3 hour dyskinesia-like symptom (AIMs) score, Locomotive behavior score, and rat body weight as indicators, which were used for evaluation of drugs. However, individuals with a total AIMs score of less than 10 were excluded from the test as lacking manifestation of a dyskinesia-like symptom. Individuals with a body weight deviating 10% or more from the mean body weight were also excluded from the test to minimize variation in the dosage for each individual. […]
# After 4 hours, a levodopa containing solution was administered to observe and evaluate the behavior. […]
# The prepared solution was used after injection into an ALZET® Osmotic Pump MODEL 2ML2 (4.53 μL/hour; DURECT) for releasing a drug solution at a stable rate for 2 weeks. […]
# The behavior was observed and evaluated using the same method as Example 2. […] After 5 minutes, a levodopa containing solution was intraperitoneally administered, and the behavior was observed and evaluated. The results in the drawings are indicated in terms of mean value […] standard error. The test results were statistically analyzed by comparison with the solvent administration group by Steel test using the total dyskinesia-like symptom (AIMs) score in 3 hours and total dyskinesia-like symptom score in 100 to 180 minutes as parameters. * indicates p<0.05, meaning that there is a significant difference.
# The behavior was observed and evaluated using the same method in Example 2. […] The test results were statistically analyzed by comparison with the solvent administration group by Steel test by using the total dyskinesia-like symptom (AIMs) score in 3 hours and total dyskinesia-like symptom score in 100 to 180 minutes as parameters.
# [3] = oral 67 mg/kg as free form (100 mg/kg as citrate)
substance,measurement,setting,value
tandospirone citrate,dyskinesia-like symptoms (total AIMs score in 3 hours),"[1]; continuous subcutaneous infusion 60 mg/mL (mean 0.78 mg/kg/hour), day 13 of implanting the pump, vs solvent group",significant improvement in dyskinesia-like symptoms
same,"(i) Degree of improvement in indicator of dyskinesia symptom (total AIMs score in 3 hours, solvent minus tandospirone group)",[1]; oral 6.7 mg/kg as free form (10 mg/kg as citrate),significant change in the total AIMs score was not observed
same,"(i) Degree of improvement in indicator of dyskinesia symptom (total AIMs score in 3 hours, solvent minus tandospirone group)",[1]; oral 20 mg/kg as free form (30 mg/kg as citrate),significant change in the total AIMs score was not observed
same,"(ii) Indicator of rebound symptom of dyskinesia (total dyskinesia-like symptom score in 100 to 180 minutes, solvent minus tandospirone group)","[1]; oral 20 mg/kg as free form (30 mg/kg as citrate), experiment printed as (FIG. 7)",significant increase in the total AIMs score
same,"(ii) Indicator of rebound symptom of dyskinesia (total dyskinesia-like symptom score in 100 to 180 minutes, solvent minus tandospirone group)","[1]; oral 20 mg/kg as free form (30 mg/kg as citrate), experiment printed as (FIGS. 8A-8B)",significant increase in the total AIMs score
same,"(i) Degree of improvement in indicator of dyskinesia symptom (total AIMs score in 3 hours, solvent minus tandospirone group)",[1]; [3],significant change in the total AIMs score was not observed
same,"(ii) Indicator of rebound symptom of dyskinesia (total dyskinesia-like symptom score in 100 to 180 minutes, solvent minus tandospirone group)",[1]; [3],significant increase in the total AIMs score
same,dyskinesia-like symptoms (total AIMs score in 3 hours),[2],Significant improvement in dyskinesia-like symptoms
